The text below walks through data of article PMC8228075, “In Vitro and In Silico Characterization of G-Protein Coupled Receptor (GPCR) Targets of Phlorofucofuroeckol-A and Dieckol” (Marine Drugs, 2021).

What all share (type): cell-based
Experiment [1] deals with T1, Cannabinoid receptor 1 (CB1R) (Homo sapiens, UniProt P21554).
T1 construct: host or cells: CHO cells
The experiment in a line: hCB1R functional antagonist assay (cAMP, HTRF, CHO cells). The settings on record: reference antagonist; read-out: Reference Drugs, IC50. As for the experimental part: (§1) The in-house assay protocol and experimental conditions are reported in our previous reports. The functional effect of dieckol and PFF-A was characterized based on their modulation effect on cytosolic Ca^2+ ion mobilization using a fluorimetric detection method or by measuring their effect on cAMP modulation using homogeneous time-resolved fluorescence (HTRF) detection.
(§2) Functional activity of phlorotannins over hA2AR, hα2CAR, hCB1R, GLP-1R, and h5-HT1BR was determined by measuring their effects on cAMP production by the HTRF detection method using transected cells expressing human cloned receptors.
The transfected CHO cells were suspended in HBSS buffer (Invitrogen) complemented with 20 mM HEPES (pH 7.4). […] After 30 min of incubation at 37 °C, the cells were lysed and the fluorescence acceptor (D2-labeled cAMP) and fluorescence donor (anti-cAMP antibody labeled with europium cryptate) were added.

The target in a further experiment is h5-HT1BR (Homo sapiens, UniProt P28222). The experiment in a line: h5-HT1BR functional antagonist assay (cAMP, HTRF, Hela cells). On the procedure: as §1, §2
Chain of h5-HT1BR (P28222 whole entry): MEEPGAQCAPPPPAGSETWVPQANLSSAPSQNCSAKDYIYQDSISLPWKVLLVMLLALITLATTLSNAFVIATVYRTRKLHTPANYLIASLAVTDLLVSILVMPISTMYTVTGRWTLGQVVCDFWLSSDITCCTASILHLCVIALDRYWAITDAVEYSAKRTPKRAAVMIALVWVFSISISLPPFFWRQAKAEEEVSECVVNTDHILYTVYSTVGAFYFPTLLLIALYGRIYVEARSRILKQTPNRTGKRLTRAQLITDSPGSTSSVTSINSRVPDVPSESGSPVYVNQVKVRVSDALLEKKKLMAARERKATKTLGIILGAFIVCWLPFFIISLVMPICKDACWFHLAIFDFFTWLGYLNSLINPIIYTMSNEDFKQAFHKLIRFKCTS
Concisely, a plasmid containing the GPCR gene of interest (5-HT1B) was transfected into Hela cells. The resulting stable transfectants were suspended in HBSS buffer (Invitrogen, Carlsbad, CA, USA) containing 20 mM HEPES (pH 7.4), […], 1 mg/mL glucose, and 500 μM IBMX and distributed in microplates at a density of 2 × 10^4 cells/well. […] Then, the cells were lysed and a fluorescence acceptor (D2-labeled cAMP) and fluorescence donor (anti-cAMP antibody with europium cryptate) were added following 60 min incubation at RT.

Experiment [2] has as its target T2, Alpha-2A adrenergic receptor (hα2AAR) (Homo sapiens, UniProt P08913).
T2 construct: host or cells: rat basophil leukemia cells
T2 sequence (P08913 1-465): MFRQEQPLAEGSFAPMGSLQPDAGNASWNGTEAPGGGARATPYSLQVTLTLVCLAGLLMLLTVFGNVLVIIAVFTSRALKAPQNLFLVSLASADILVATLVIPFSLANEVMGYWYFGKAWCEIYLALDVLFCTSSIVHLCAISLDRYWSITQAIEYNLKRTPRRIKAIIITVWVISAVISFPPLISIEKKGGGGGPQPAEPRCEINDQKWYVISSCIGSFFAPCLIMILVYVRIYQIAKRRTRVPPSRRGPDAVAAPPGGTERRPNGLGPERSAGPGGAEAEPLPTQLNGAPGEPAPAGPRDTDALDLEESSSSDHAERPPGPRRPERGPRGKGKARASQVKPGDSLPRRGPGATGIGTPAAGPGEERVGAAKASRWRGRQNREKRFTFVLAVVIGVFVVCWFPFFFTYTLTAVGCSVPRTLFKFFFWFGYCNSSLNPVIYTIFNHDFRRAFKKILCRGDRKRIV
Briefly: hα2AAR functional antagonist assay (Ca2+ mobilization, rat basophil leukemia cells). As to conditions: reference antagonist; read-out: Reference Drugs, IC50.
Source text: as §1
The rat basophil leukemia cells were distributed in microplates at a density of 1.1 × 10^4 cells/well after suspending in a HBSS buffer (Invitrogen) containing 20 mM HEPES. Then, the fluorescent probe (Fluo8, AAT Bioquest) mixed with probenecid in HBSS buffer (Invitrogen) complemented with 20 mM Hepes (Millipore) (pH 7.4) was added into each well incubated for 60 min at 30 °C. Thereafter, the assay plates were positioned in a microplate reader (FlipR Tetra, Molecular Device) and we added test compounds, reference agonist/antagonist or HBSS buffer (basal control). Change in fluorescence intensity which varies proportionally to the free cytosolic Ca^2+ ion concentration was measured.

In experiment [3] the target is T3, Free fatty acid receptor 1 (FFA1R) (GPR40) (Homo sapiens, UniProt O14842).
T3 construct: host or cells: HEK-293 cells
T3 sequence (O14842 whole entry): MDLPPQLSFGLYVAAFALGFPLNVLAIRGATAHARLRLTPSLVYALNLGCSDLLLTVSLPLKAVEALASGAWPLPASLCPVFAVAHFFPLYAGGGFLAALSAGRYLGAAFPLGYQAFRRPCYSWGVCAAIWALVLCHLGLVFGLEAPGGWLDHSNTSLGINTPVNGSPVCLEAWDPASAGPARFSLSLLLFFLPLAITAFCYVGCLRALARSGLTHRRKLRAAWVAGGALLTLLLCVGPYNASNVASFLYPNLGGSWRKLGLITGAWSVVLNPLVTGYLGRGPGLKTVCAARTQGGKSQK
Briefly: FFA1R/GPR40 functional agonist assay (Ca2+ mobilization, HEK-293 cells). As to conditions: reference agonist; read-out: Reference Drugs, EC50. As for the experimental part:
The in-house assay protocol and experimental conditions are reported in our previous reports. […] Then, the mixture of fluorescent probe (Fluo4 Direct, Invitrogen) and probenecid in HBSS buffer (Invitrogen) complemented with 20 mM Hepes (Invitrogen) (pH 7.4) was added into each well and incubated for 60 min at 37 °C, followed by 15 min incubation at 22 °C. Thereafter, the assay plates were positioned in a CellLux microplate reader (PerkinElmer, Waltham, MA, USA) which was used for the addition of the following: For agonist assay-test compound, reference agonist, or HBSS buffer (basal control). Linoleic acid at 100 μM was added in separate assay wells for stimulated control measurement.

T1 sequence (P21554 whole entry): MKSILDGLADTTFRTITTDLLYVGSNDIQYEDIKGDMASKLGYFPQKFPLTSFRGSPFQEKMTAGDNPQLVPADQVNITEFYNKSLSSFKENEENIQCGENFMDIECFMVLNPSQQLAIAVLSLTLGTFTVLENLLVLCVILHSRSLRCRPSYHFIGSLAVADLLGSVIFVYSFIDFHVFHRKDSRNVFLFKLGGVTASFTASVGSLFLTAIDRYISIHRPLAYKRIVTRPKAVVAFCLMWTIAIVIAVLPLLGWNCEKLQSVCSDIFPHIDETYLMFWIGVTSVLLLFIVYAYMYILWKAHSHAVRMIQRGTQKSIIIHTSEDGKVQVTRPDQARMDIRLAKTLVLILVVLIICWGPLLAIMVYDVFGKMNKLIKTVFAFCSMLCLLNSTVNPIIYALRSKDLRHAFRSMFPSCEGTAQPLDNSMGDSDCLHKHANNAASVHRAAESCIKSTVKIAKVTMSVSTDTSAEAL

On to `Cc1c(C(=O)NN2CCOCC2)nn(-c2ccc(Cl)cc2Cl)c1-c1ccc(I)cc1` [AM 281, reference compound], for which the IC50 in experiment [1] was found to be 77 nM.
As for `CN(C)CCCc1cc(C(=O)Nc2ccc(-c3ccncc3)cc2)ccc1O` [GR55562, reference compound], the IC50 against h5-HT1BR was 23 nM.
With `COC1(C2=NCCN2)COc2ccccc2O1` (stereo not shown) [RX-821002, reference compound], the half-maximal inhibitory concentration (IC50) in experiment [2] turned out to be 17 nM.
Regarding `CCCCC/C=C\C/C=C\CCCCCCCC(=O)O` [linoleic acid, reference compound], the EC50 in experiment [3] was found to be 10000 nM.
